According to patent publication US20020040053A1, “Antioxidant containing vitamin E metabolite” (priority 2000, published 2002):

Assays:
[1] = 500IU RRR-α-tocopherol administered to human subject; cited from earlier work
LDL = assay: Oxidative degeneration LDL assay using azo-compound (V-70); format: biochemical, human; conditions: for anti-oxidative activity on LDL (lag-time): added to LDL concentration-dependently, final concentration 60-1000 ng; for lag-time (time during which conjugate diene production was inhibited): final concentration 1 μg, LDL from eight male and female adults, V-70 200 μM, about 70 μg/mL LDL protein, control 88.1±29.4 minutes
Method: Blood collected from human subject was centrifuged at 3000 rpm for 10 minutes to isolate plasma. Next, KBr was added to 1.1 mL of the plasma which was then subjected to density gradient ultra-centrifugation (Single spin differential centrifugation) to collect LDL. After the determination of protein concentration, LDL was prepared by PBS.
In vitro assay of oxidatively denatured LDL was performed according to the method described by Kondo, et al. This method involves use of 2,2′-azobis([…]-2,4-dimethylvaleronitrile; V-70) as the oxidation starter. Final concentration of V-70 was 200 μM for about 70 μg/mL of LDL protein concentration, and production of the conjugate dienes of LDL was assayed at 234 nm for 300 minutes. The time during which conjugate diene production was inhibited was indicated as lag-time. The efficacy of each antioxidants was evaluated by adding the compound and V-70 at the same time and determining the lag-time caused by the compound.

SMILES	plasma α-CEHC concentration [1] [pmol/mL]	anti-oxidative activity on LDL (lag-time) (LDL)	lag-time (time during which conjugate diene production was inhibited) (LDL) [min]	extension rate of lag-time (control = 1), FIG. 1 (LDL; final concentration 60 ng, close to 200 pmol/mL (lower concentration))	anti-oxidative effects on LDL, comparison between compounds (LDL; final concentration 1 μg (higher concentration))
Cc1c(C)c2c(c(C)c1O)CC[C@@](C)(CCC[C@H](C)CCC[C@H](C)CCCC(C)C)O2 [RRR-α-tocopherol]	200				
Cc1c(C)c2c(c(C)c1O)CCC(C)(CCC(=O)O)O2 (stereo not drawn) [α-CEHC, 2,5,7,8-Tetramethyl-2-(β-carboxyethyl)-6-hydroxychromane]		prolonged lag-times concentration-dependently	190.8 ± 65.1		
Cc1c(O)cc2c(c1C)OC(C)(CCC(=O)O)CC2 (stereo not drawn) [γ-CEHC, 2,7,8-trimethyl-2-(β-carboxyethyl)-6-hydroxychromane]		prolonged lag-times concentration-dependently	263.1 ± 114.8	greater increase in extension rate of lag-time than those of α-CEHC and Trolox groups	significantly stronger anti-oxidative effects on LDL than α-CEHC did
